Experimental data reported in ChEMBL document CHEMBL1201862, “PubChem BioAssay data set” (2004).
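Interpolation was linear, between the two tested concentrations surrounding the appropriate level; five concentrations were tested over 48 hours in 96-well plates. GI50 = concentration required for 50% inhibition of growth.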 Active and inactive are the calls of the source. Rule as the data show it: active = GI50 up to about 1.1 µM and inactive = higher.

How the values were obtained:
Test in all cases: NCI tumour cell line growth inhibition, 48 h
BT-549 = test system: BT-549
OVCAR-4 = test system: OVCAR-4
MDA-MB-435 = test system: MDA-MB-435
SF-268 = test system: SF-268
NCI/ADR-RES = test system: NCI/ADR-RES
UACC-257 = test system: UACC-257
PC-3 = test system: PC-3
HCT-15 = test system: HCT-15
SR = test system: SR
MOLT-4 = test system: MOLT-4
COLO 205 = test system: COLO 205
RPMI-8226 = test system: RPMI-8226
SF-295 = test system: SF-295
SK-OV-3 = test system: SK-OV-3
ACHN = test system: ACHN
EKVX = test system: EKVX
HOP-62 = test system: HOP-62
NCI-H23 = test system: NCI-H23
SK-MEL-28 = test system: SK-MEL-28
HL-60 = test system: HL-60
Malme-3M = test system: Malme-3M
HOP-92 = test system: HOP-92
CAKI-1 = test system: CAKI-1
UACC-62 = test system: UACC-62
LOX IMVI = test system: LOX IMVI
CCRF-CEM = test system: CCRF-CEM
NCI-H226 = test system: NCI-H226
MDA-N = test system: MDA-N
786-0 = test system: 786-0
TK-10 = test system: TK-10
DU-145 = test system: DU-145
SNB-19 = test system: SNB-19
UO-31 = test system: UO-31
NCI-H522 = test system: NCI-H522
HT-29 = test system: HT-29
K562 = test system: K562
KM12 = test system: KM12
A549 = test system: A549
OVCAR-8 = test system: OVCAR-8
SN12C = test system: SN12C
U-251 = test system: U-251
SW-620 = test system: SW-620
MCF7 = test system: MCF7
OVCAR-5 = test system: OVCAR-5
OVCAR-3 = test system: OVCAR-3
M14 = test system: M14
IGROV-1 = test system: IGROV-1
SK-MEL-5 = test system: SK-MEL-5
HCT-116 = test system: HCT-116
SNB-75 = test system: SNB-75
Hs-578T = test system: Hs-578T
SK-MEL-2 = test system: SK-MEL-2
NCI-H460 = test system: NCI-H460
T47D = test system: T47D
RXF 393 = test system: RXF 393
A498 = test system: A498
HCC 2998 = test system: HCC 2998
SF-539 = test system: SF-539
MDA-MB-231 = test system: MDA-MB-231

Measured: GI50

O=[N+]([O-])c1ccc(N/N=C2\C=CCCC2)c([N+](=O)[O-])c1
> 100 µM: HCT-15
inactive: BT-549 > 100 µM | OVCAR-4 > 100 µM | MDA-MB-435 > 100 µM | SF-268 > 100 µM | NCI/ADR-RES > 100 µM | UACC-257 > 100 µM | PC-3 > 100 µM | SR > 100 µM | MOLT-4 > 10 µM | COLO 205 > 100 µM | RPMI-8226 > 100 µM | SF-295 31.3 µM | SK-OV-3 > 100 µM | ACHN 81.8 µM | EKVX > 100 µM | HOP-62 63.5 µM | NCI-H23 > 100 µM | SK-MEL-28 > 100 µM | HL-60 > 100 µM | Malme-3M > 100 µM | HOP-92 52.1 µM | CAKI-1 > 100 µM | UACC-62 > 100 µM | LOX IMVI > 100 µM | CCRF-CEM > 100 µM | NCI-H226 > 100 µM | MDA-N > 100 µM | 786-0 > 100 µM | TK-10 > 100 µM | DU-145 > 100 µM | SNB-19 > 100 µM | UO-31 39 µM | NCI-H522 > 100 µM | HT-29 > 100 µM | K562 > 100 µM | KM12 > 100 µM | A549 > 100 µM | OVCAR-8 > 100 µM | SN12C > 100 µM | U-251 > 100 µM | SW-620 > 100 µM | MCF7 > 100 µM | OVCAR-5 > 100 µM | OVCAR-3 > 100 µM | M14 > 100 µM | IGROV-1 73.1 µM | SK-MEL-5 > 100 µM | HCT-116 > 100 µM | SNB-75 27.2 µM | Hs-578T 27.3 µM | SK-MEL-2 > 100 µM | NCI-H460 > 100 µM | T47D > 100 µM

CSCSSC
inactive: BT-549 > 100 µM | MDA-MB-435 > 78 µM | SF-268 > 100 µM | NCI/ADR-RES > 100 µM | UACC-257 > 100 µM | PC-3 > 80 µM | SR 30.7 µM | MOLT-4 4.67 µM | COLO 205 > 100 µM | RPMI-8226 56.5 µM | SF-295 > 100 µM | SK-OV-3 74.6 µM | ACHN > 100 µM | EKVX > 100 µM | HOP-62 > 100 µM | RXF 393 > 100 µM | NCI-H23 > 83 µM | SK-MEL-28 > 57.3 µM | HL-60 2.54 µM | Malme-3M 77.1 µM | HCC 2998 > 100 µM | HOP-92 > 75.5 µM | CAKI-1 > 21.6 µM | UACC-62 61.7 µM | LOX IMVI 17.7 µM | SF-539 > 100 µM | CCRF-CEM 40.6 µM | NCI-H226 > 100 µM | MDA-N > 93.3 µM | 786-0 > 100 µM | TK-10 > 100 µM | DU-145 > 100 µM | SNB-19 > 100 µM | UO-31 > 100 µM | NCI-H522 > 100 µM | HT-29 > 100 µM | K562 95.3 µM | KM12 > 57.3 µM | A549 > 100 µM | OVCAR-8 > 100 µM | SN12C > 100 µM | SW-620 49.4 µM | OVCAR-5 > 100 µM | OVCAR-3 > 100 µM | M14 > 100 µM | IGROV-1 > 79.6 µM | SK-MEL-5 > 100 µM | HCT-116 > 100 µM | SNB-75 52.1 µM | Hs-578T > 100 µM | SK-MEL-2 > 35.5 µM | NCI-H460 > 100 µM | T47D > 100 µM
active: A498 0.0231 µM

C=CCn1c(=O)c(-c2ccccc2)c(O)c2ccccc21
inactive: BT-549 > 100 µM | OVCAR-4 > 100 µM | MDA-MB-435 > 100 µM | SF-268 > 100 µM | NCI/ADR-RES > 100 µM | UACC-257 > 100 µM | PC-3 > 100 µM | SR > 100 µM | MOLT-4 > 100 µM | COLO 205 > 100 µM | RPMI-8226 > 100 µM | SF-295 > 100 µM | ACHN > 100 µM | EKVX > 100 µM | HOP-62 > 100 µM | RXF 393 > 100 µM | NCI-H23 > 100 µM | SK-MEL-28 > 100 µM | HL-60 > 100 µM | A498 > 100 µM | Malme-3M > 100 µM | HCC 2998 > 100 µM | HOP-92 > 100 µM | CAKI-1 > 100 µM | LOX IMVI > 100 µM | SF-539 > 100 µM | CCRF-CEM > 100 µM | NCI-H226 > 100 µM | MDA-N > 100 µM | 786-0 > 100 µM | TK-10 > 100 µM | DU-145 > 100 µM | SNB-19 > 100 µM | UO-31 > 100 µM | NCI-H522 > 100 µM | HT-29 > 100 µM | K562 > 100 µM | KM12 > 100 µM | A549 > 100 µM | OVCAR-8 > 100 µM | SN12C > 100 µM | U-251 > 100 µM | SW-620 > 100 µM | MCF7 > 100 µM | OVCAR-5 > 100 µM | OVCAR-3 > 100 µM | MDA-MB-231 > 100 µM | IGROV-1 > 100 µM | SK-MEL-5 > 100 µM | HCT-116 > 100 µM | SNB-75 94 µM | Hs-578T > 100 µM | NCI-H460 > 100 µM
> 100 µM: HCT-15

O=C1CCC2(c3ccc(F)cc3)Nc3ncncc3N12 (stereo unspecified)
> 10 µM: HCT-15
inactive: BT-549 > 10 µM | OVCAR-4 > 10 µM | MDA-MB-435 > 10 µM | SF-268 > 10 µM | NCI/ADR-RES > 10 µM | UACC-257 > 10 µM | PC-3 > 10 µM | SR > 10 µM | MOLT-4 > 10 µM | SF-295 > 10 µM | ACHN > 10 µM | EKVX 9.93 µM | NCI-H23 > 10 µM | Malme-3M > 10 µM | HCC 2998 > 10 µM | HOP-92 > 10 µM | UACC-62 > 10 µM | LOX IMVI > 10 µM | SF-539 > 10 µM | CCRF-CEM > 10 µM | NCI-H226 > 10 µM | MDA-N > 10 µM | 786-0 > 10 µM | TK-10 > 10 µM | DU-145 > 10 µM | SNB-19 > 10 µM | UO-31 > 10 µM | NCI-H522 > 10 µM | HT-29 > 10 µM | K562 > 10 µM | KM12 > 10 µM | A549 > 10 µM | OVCAR-8 > 10 µM | SN12C > 10 µM | U-251 > 10 µM | SW-620 > 10 µM | MCF7 2.32 µM | OVCAR-5 > 10 µM | OVCAR-3 > 10 µM | M14 > 10 µM | IGROV-1 > 10 µM | SNB-75 > 10 µM | Hs-578T > 10 µM | SK-MEL-2 > 10 µM | NCI-H460 > 10 µM

N#Cc1c(O)c(/N=N/c2ccccc2F)c(=O)n2c1[nH]c1ccccc12
37.2 µM: HCT-15
inactive: BT-549 60 µM | OVCAR-4 39.3 µM | MDA-MB-435 21.6 µM | SF-268 32.4 µM | NCI/ADR-RES 50 µM | UACC-257 33.9 µM | PC-3 30.3 µM | COLO 205 55.1 µM | SF-295 33 µM | SK-OV-3 50.5 µM | ACHN 34 µM | EKVX > 100 µM | HOP-62 43.7 µM | RXF 393 37.8 µM | NCI-H23 38.2 µM | SK-MEL-28 29.4 µM | HL-60 33 µM | A498 60.5 µM | Malme-3M 28.5 µM | HCC 2998 53.6 µM | HOP-92 15.1 µM | UACC-62 20.6 µM | LOX IMVI 61.9 µM | SF-539 > 100 µM | CCRF-CEM 36.8 µM | NCI-H226 33.7 µM | MDA-N 22 µM | 786-0 43.7 µM | TK-10 55.6 µM | DU-145 42.4 µM | SNB-19 48.1 µM | UO-31 29.3 µM | NCI-H522 27.9 µM | HT-29 23.3 µM | K562 36.3 µM | A549 42.5 µM | OVCAR-8 39.3 µM | SN12C 31.6 µM | U-251 32.7 µM | SW-620 63.2 µM | MCF7 32.7 µM | OVCAR-5 34 µM | OVCAR-3 36 µM | M14 22.4 µM | MDA-MB-231 22.2 µM | IGROV-1 74.8 µM | SK-MEL-5 42 µM | HCT-116 26.6 µM | SNB-75 30.4 µM | Hs-578T 15.4 µM | SK-MEL-2 20.9 µM | NCI-H460 32.6 µM
